For data set [1], the target named is T1, HNE under oxidizing conditions (oxidized HNE) (Homo sapiens, UniProt P08246).
T1 construct: purchased Abcam
T1 sequence (P08246 30-247 limits assumed): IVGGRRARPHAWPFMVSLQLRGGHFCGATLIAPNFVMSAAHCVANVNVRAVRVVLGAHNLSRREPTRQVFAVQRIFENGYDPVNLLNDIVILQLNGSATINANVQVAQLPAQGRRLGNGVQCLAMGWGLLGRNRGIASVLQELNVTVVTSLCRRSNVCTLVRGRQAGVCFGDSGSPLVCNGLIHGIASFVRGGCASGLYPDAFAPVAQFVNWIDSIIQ
Description: HNE inhibition assay under oxidizing conditions (HNE pre-incubated with 44 mM H2O2). The data set is classed as biochemical. The settings on record: for remaining activity at 100 µM: HNE under oxidizing conditions (44 mM H2O2), maximum inhibitor concentration 100 μM, read-out: Residual Activity at Maximum Inhibitor Concentration (%). As to the method:
HNE activity under oxidative conditions was determined using the colorimetric assay described above. Briefly, HNE was pre-incubated with 1 μL of 30% (w/v) H2O2 (final concentration 44 mM in a total reaction volume of 200 μL) for 60 min at 37 °C. The oxidative conditions used in this study were designed to promote cumulative oxidative modifications of HNE rather than to reproduce physiological ROS concentrations, allowing simulation of oxidative stress in chronically inflamed tissues where repeated ROS exposure leads to progressive protein oxidation. The kinetic parameters of oxidized HNE were determined as described above. Subsequently, inhibition assays were performed by initiating the reaction with substrate (final concentration 0.15 mM) in the presence of increasing concentrations of inhibitor (0.1–100 μM). The reaction mixtures were then incubated at 37 °C for 45 min and then terminated by the addition of 20 μL of 0.45 M TCA. Samples were cooled on ice, centrifuged, and analyzed as described in Section 2.4.
Residual enzymatic activity (%) was calculated relative to HNE activity in the absence of inhibitors, set as 100%. The lowest observed activity under the experimental conditions was taken as the maximal inhibition achieved within this assay range.

Data set [2] concerns the target T2, Human neutrophil elastase (HNE) (Homo sapiens, UniProt P08246).
T2 construct: purchased Abcam
T2 sequence (P08246 30-267): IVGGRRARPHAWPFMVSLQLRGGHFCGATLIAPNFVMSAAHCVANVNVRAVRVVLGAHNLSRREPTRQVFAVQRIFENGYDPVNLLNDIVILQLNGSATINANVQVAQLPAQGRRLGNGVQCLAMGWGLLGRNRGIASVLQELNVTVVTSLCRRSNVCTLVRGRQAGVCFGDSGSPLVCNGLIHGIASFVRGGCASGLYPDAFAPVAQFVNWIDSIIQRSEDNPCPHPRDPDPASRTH
Description: HNE colorimetric inhibition and steady-state kinetics assay (MeOSuc-Ala-Ala-Pro-Val-pNA), native conditions. The settings on record: inhibitor 0.1-100 μM; for Mode of inhibition (Lineweaver-Burk plots): steady-state kinetics. The class given is biochemical. As to the method:
HNE activity was assessed through a colorimetric assay based on the hydrolysis of the synthetic peptide substrate MeOSuc-Ala-Ala-Pro-Val-pNA [37]. To determine the steady-state kinetic parameters, 0.4 μg of HNE (corresponding to a final concentration of approximately 0.05 μM) were added to an incubation buffer consisting of 50 mM Tris-HCl, pH 7.8 containing 500 mM NaCl. The reaction was initiated by adding a fixed volume (20 µL) of intermediate substrate working solutions to the enzyme–buffer mixture, reaching a final reaction volume of 200 µL. These working solutions were prepared by diluting a 20 mM substrate stock solution in DMSO with incubation buffer, ensuring that the final DMSO concentration remained constant at 1% (v/v) across all tested substrate concentrations (ranging from 0.075 to 2.4 mM). This approach was applied to all samples, including blanks, to maintain a uniform solvent environment. The mixtures were incubated at 37 °C for 45 min. […] The reaction was then quenched with 20 μL of 0.45 M trichloroacetic acid (TCA). After cooling on ice for 30 min, the samples were centrifuged at 11,500 rpm for 10 min to remove precipitated proteins. The concentration of p-nitroaniline (p-NA) released into the supernatant was determined by measuring the absorbance at 410 nm. All assays were performed in triplicate, and the kinetic parameters were determined by fitting the experimental data to the Michaelis–Menten equation using GraphPad Prism 8.0 software (GraphPad Software, San Diego, CA, USA).
Stock solutions of both inhibitors were prepared in DMSO and diluted with incubation buffer to obtain intermediate working solutions. A fixed volume of these working solutions was added to each reaction mixture so that the final DMSO concentration remained constant at 1% (v/v) across all inhibitor concentrations. […]
Subsequently, the inhibition constants (Ki) were determined independently from IC50 values by performing steady-state kinetic assays at varying concentrations of both substrate and inhibitors. […]

Data set [3] can be described thus: Inhibitor stability under oxidative conditions by direct-infusion ESI-MS. The data set is classed as physicochemical. As to conditions: 100 μM compound, 44 mM H2O2, 30 min, 37 °C, no HNE. As to the method:
Mass spectrometry analysis was performed using an Advion Interchim Scientific expression® Compact Mass Spectrometer (CMS) (Advion Interchim Scientific, Ithaca, NY, USA) equipped with an ESI source. Stock solutions of each inhibitor were prepared in DMSO and diluted in an assay buffer to a final concentration of 100 μM (DMSO ≤ 1% v/v). Aliquots were incubated in the presence or absence of H2O2 (44 mM final concentration) for 30 min at 37 °C, matching the oxidative treatment used in the enzymatic assays. After incubation, samples were diluted 1:1 (v/v) with water containing 0.1% formic acid and directly analyzed in both positive- and negative-ion mode. Mass spectra were analyzed with Mass Express software version 5.1.

A short description of data set [4]: Cytotoxicity on A549 cell monolayers (resazurin reduction assay). As to conditions: human, A549 cells (confluent monolayer), 0.1 to 1000 µM, 16 h exposure, read-out: Cell viability (% of untreated control). The class given is cell-based. As to the method:
Cells were obtained from the American Type Culture Collection (ATCC, Manassas, VA, USA) and cultured according to the supplier’s instructions. Cells were maintained in DMEM supplemented with 10% fetal bovine serum (FBS) and seeded into sterile 96-well plates at a density of 1 × 10^5 cells per well, allowing for the formation of a confluent monolayer prior to treatment. After 24 h incubation at 37 °C (5% CO2), the culture medium was replaced with 200 μL of fresh medium containing ten-fold dilutions of the test compounds, ranging from 0.1 to 1000 µM.
After a 16 h exposure period, cell viability was assessed via the resazurin reduction assay. Briefly, 30 μL of a 0.01% resazurin solution (Sigma-Aldrich, St. Louis, MO, USA) was added to each well and incubated for 4 h at 37 °C. The reduction of resazurin to resorufin by metabolically active cells was quantified using a ClarioSTAR microplate reader (BMG Labtech, Ortenberg, Germany), with excitation and emission wavelengths set at 520 nm and 580 nm, respectively. All experiments were performed in triplicate, and cell viability was expressed as a percentage relative to untreated control wells.

These results are taken from paper PMC13165411 (Molecules, 2026).

Structures are written as SMILES. Values joined by “and” are separate entries in the source; they are usually repeats but may differ in a detail not shown here. Equal values may be shown once.

For the compound `Cc1c(-c2ccnn2C)cc(C(=O)NCc2ccc(S(C)(=O)=O)cn2)c(=O)n1-c1cccc(C(F)(F)F)c1` [Alvelestat], the IC50 is 4 ± 0.41 µM in data set [1] (HNE pre-incubated with 44 mM H2O2, 60 min, 37 °C, substrate 0.15 mM); 2.8 µM and 2.84 µM in data set [2] (substrate 0.15 mM, 37 °C, 45 min, read-out: IC50 against HNE activity). The remaining activity at 100 µM in data set [1] is less than 20%. The “Mode of inhibition (Lineweaver-Burk plots)” value in data set [2] is recorded as “competitive inhibition”. Further, the “Chemical stability under oxidizing conditions (ESI-MS spectra vs untreated control)” value in data set [3] is on record as “no additional peaks”. The viability at 16 h in data set [4] was approximately 100%.
As to `CC(C)(C)C(=O)Oc1ccc(S(=O)(=O)Nc2ccccc2C(=O)NCC(=O)O)cc1` [Sivelestat], in data set [1] (100 μM inhibitor, HNE pre-treated with 44 mM H2O2), the “Inhibition of oxidized HNE at the highest tested concentration” value is “failed to achieve significant inhibition”. Also, in data set [1], the remaining activity at 100 µM was more than 80%. In addition, the “Mode of inhibition (Lineweaver-Burk plots)” value in data set [2] is “competitive inhibition”. The “Chemical stability under oxidizing conditions (ESI-MS spectra vs untreated control)” value in data set [3] is “no additional peaks”. For the same compound, in data set [4], the viability at 16 h was approximately 100%.
